This passage reports deltaT, inhibition and IC50 results from ChEMBL document CHEMBL4627313, “Discovery of sulfonamides and 9-oxo-2,8-diazaspiro[5,5]undecane-2-carboxamides as human kynurenine aminotransferase 2 (KAT2) inhibitors” (Bioorg Med Chem Lett, 2020).

For test [1], the target named is T1, Kynurenine/alpha-aminoadipate aminotransferase, mitochondrial (Homo sapiens, UniProt Q8N5Z0). Kind of test: Binding affinity to recombinant human KAT2 assessed as change in temperature by thermal shift assay.
Target sequence in this assay (Q8N5Z0 30-425 limits assumed): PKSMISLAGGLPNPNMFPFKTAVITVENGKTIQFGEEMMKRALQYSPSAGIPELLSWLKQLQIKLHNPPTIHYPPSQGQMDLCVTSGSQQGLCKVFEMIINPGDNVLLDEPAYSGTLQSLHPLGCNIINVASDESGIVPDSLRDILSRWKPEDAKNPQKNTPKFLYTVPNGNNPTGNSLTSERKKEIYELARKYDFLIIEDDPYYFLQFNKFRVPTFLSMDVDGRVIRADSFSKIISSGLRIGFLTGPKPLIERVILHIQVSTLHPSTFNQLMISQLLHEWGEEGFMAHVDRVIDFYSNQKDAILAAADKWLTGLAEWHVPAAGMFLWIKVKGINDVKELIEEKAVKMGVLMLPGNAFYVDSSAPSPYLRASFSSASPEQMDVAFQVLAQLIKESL
Test [2] has as its target T1, Kynurenine/alpha-aminoadipate aminotransferase, mitochondrial. Kind of test: Reversible inhibition of recombinant human KAT2 assessed as reduction in kynurenic acid formation at 50 uM using L-kynurenine as substrate by fluorescence assay relative to control.
Target sequence in this assay (Q8N5Z0 30-425 limits assumed): as above
For test [3] the target is unchanged. Description: Reversible inhibition of recombinant human KAT2 assessed as reduction in kynurenic acid formation using L-kynurenine as substrate by fluorescence assay.
Target sequence in this assay (Q8N5Z0 whole entry): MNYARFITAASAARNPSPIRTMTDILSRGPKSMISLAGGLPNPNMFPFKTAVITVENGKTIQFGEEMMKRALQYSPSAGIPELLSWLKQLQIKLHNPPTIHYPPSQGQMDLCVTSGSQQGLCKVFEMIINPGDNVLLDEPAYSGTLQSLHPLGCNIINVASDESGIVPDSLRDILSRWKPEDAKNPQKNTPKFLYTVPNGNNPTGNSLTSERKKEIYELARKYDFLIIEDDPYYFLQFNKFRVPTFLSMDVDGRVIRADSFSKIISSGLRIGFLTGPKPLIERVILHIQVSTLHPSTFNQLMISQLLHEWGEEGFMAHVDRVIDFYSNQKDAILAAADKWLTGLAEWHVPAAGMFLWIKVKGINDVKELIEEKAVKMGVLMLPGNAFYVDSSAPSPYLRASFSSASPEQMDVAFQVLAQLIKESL

The term inhibition denotes the change of the read-out against control, counted positive when it falls. Usually IC50 stands for the point on the concentration scale where inhibition reaches its midpoint. As to `O=S(=O)(Nc1nnc(C2(c3ccccc3)CC2)s1)c1cc(F)cc(F)c1`, the deltaT in test [1] came out at 1.7 °C. In addition, in test [2], the inhibition is 88%. In addition, the concentration for half-maximal inhibition (IC50) in test [3] is 16 µM. As for `CC(C)C(Cc1nnc(NS(=O)(=O)c2cc(F)cc(F)c2)s1)c1cccc(F)c1` (stereo unspecified), the IC50 in test [3] worked out at 1.6 µM. For the compound `O=S(=O)(NC1CCNC1)c1ccc(Cl)cc1C(F)(F)F` (stereo unspecified), the inhibition in test [2] is 57%. Still for that read-out and setting: for `O=S(=O)(Nc1nnc(CC2CCCC2)o1)c1ccccc1` the value was 47%.

In the case of `CCc1cccc(NC(=O)N2CCCC3(CCC(=O)N(CCC(C)C)C3)C2)c1` (racemic), the IC50 in test [3] was determined as 8 µM. Consider `Cc1ccc(NC(=O)N2CCCC3(CCC(=O)N(CCC(C)C)C3)C2)cc1Cl` (racemic), for which, in test [3], the IC50 is 0.81 µM. `CCc1cccc(NC(=O)N2CCCC3(CCC(=O)N(CCC(C)C)C3)C2)c1` (stereo in doubt; 7 E1): in test [3], the IC50 is 4.4 µM. Same read-out and setting: for `CCc1cccc(NC(=O)N2CCCC3(CCC(=O)N(CCC(C)C)C3)C2)c1` (stereo in doubt; 7 E2) the value was 97 µM. The same measure, in the same setting: for `Cc1cc(C)cc(NC(=O)N2CCCC3(CCC(=O)N(C4CC4)C3)C2)c1` (stereo in doubt; 9 E1) the value was 4.5 µM; for `Cc1cc(C)cc(NC(=O)N2CCCC3(CCC(=O)N(C4CC4)C3)C2)c1` (stereo in doubt; 9 E2), 74.9 µM; for `O=C1CCC2(CCCN(C(=O)Nc3ccc(F)c(Cl)c3)C2)CN1CC1CC1` (stereo in doubt; 10 E1), 2.4 µM. `O=C1CCC2(CCCN(C(=O)Nc3ccc(F)c(Cl)c3)C2)CN1CC1CC1` (stereo in doubt; 10 E2): the IC50 in test [3] was 96.5 µM. On the same count and under the same terms, for `COc1ccc(NC(=O)N2CCCC3(CCC(=O)N(C4CC4)C3)C2)cc1` (stereo in doubt; 11 E1) the value was more than 100 µM; for `COc1ccc(NC(=O)N2CCCC3(CCC(=O)N(C4CC4)C3)C2)cc1` (stereo in doubt; 11 E2), 15.5 µM.
